Assay results from US10597405B2, “Chemical compounds” (ASTRAZENECA AB, priority 2017, dated 2020).

What was measured:
[1] = biological target: T1, KRasG12C (Homo sapiens, UniProt P01116, G12C); experiment: KRasG12C Mass Spectrometry adducting assay; format: binding; conditions: 10 μM test compound, 4 μM KRasG12C, 4 hours reaction; single experiment or average of two or more
T1 construct: biotin (biotinylated); made in house
Method: KRasG12C Mass Spectrometry Adducting Assay
Enzyme solutions were prepared in assay buffer containing 20 mM HEPES (pH 7.5), 5 mM MgCl2, and 150 mM NaCl. 4 μM GDP loaded biotinylated KRas^G12C was prepared in assay buffer and 50 μl added into each well of a 96 well polypropylene assay plate (Greiner, #651201) containing 500 nl of 1 mM test compounds (final concentration 10 μM), this was allowed to react for 4 hours before the addition of 50 μl 1% Formic acid to quench the reaction. The plate was sealed before reading on a Xevo G2 QTOF (Waters) and Acquity LC system (Waters). 10 μl of sample was injected onto a Xbridge BEH300; C4; 3.5 um; 2.1×50 mm column (Waters) running a 3 minute gradient. Blank samples were run in between each test sample.
Data was analysed in Mass Lynx software (Waters), the Total ion count (TIC) trace was used and the eluted protein peak data combined. Using the combined spectrum the data was deconvoluted using MaxEnt1 method. The peak area for apo-protein KRas^G12C (APO) and KRAS+relative cmpd mass (adduct) were measured, and a percentage adduct was calculated using the following calculation: Percent adduct=100*(area of adduct peak/(sum of APO+adduct peaks)

[2] = biological target: T1, KRasG12C; experiment: KRasG12C functional assay (HTRF nucleotide exchange / Raf RBD binding); format: biochemical; conditions: GDP loaded biotinylated KRasG12C, samples incubated 4 hrs, FRET readout; single experiment or average of two or more
Outline: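 Biotinylated GDP-loaded KRasG12C exchange driven by 0.08 μM SOS with 0.6 μM GTPγS, read by HTRF between europium and XL665 as active KRas binds 20 nM GST-Raf RBD. Buffer: 20 mM HEPES pH 7.5, 5 mM MgCl2, 150 mM NaCl, 0.01% Tween 20. IC50 from normalised FRET dose-response fits.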

[3] = In vivo studies: oral bioavailability and clearance; conditions: rat
[4] = Incubations with hepatic systems (turnover); format: in vitro ADME; conditions: result in words
[5] = Reactivity to glutathione (co-incubation with glutathione in buffer)

Structure (SMILES) | KRasG12C M.S. Binding Mean adduct % [1] [%] | IC50 [2] [nM] | clearance [3] [mL/min/kg] | F (oral bioavailability), in words ([3]; result in words) | bioavailability ([3]; po, species not given, read-out: F value (oral bioavailability)) [%] | turnover in incubations with hepatic systems [4] | half-life [5] [h]
C=CC(=O)N1CCN2c3c(cnc4c(C)c(-c5c(O)cccc5F)c(Cl)cc34)OC[C@H]2C1 (single isomer, unassigned) [Compound 39] | 94 | 97 | 6 | complete | – | – | –
C=CC(=O)N1C[C@@H]2COc3cnc4c(C)c(-c5c(O)cccc5F)c(Cl)cc4c3N2C[C@H]1C (single isomer, unassigned) [Compound 40] | 96 | 62 | – | – | 43 | – | –
C=CC(=O)N1CCN2c3c(cnc4c(F)c(-c5c(O)cccc5F)c(Cl)cc34)N(C)C(=O)[C@H]2C1 (single isomer, unassigned) [Example 17, 3-acryloyl-11-chloro-9-fluoro-10-(2-fluoro-6-hydroxyphenyl)-6-methyl-2,3,4,4a-tetrahydro-1H-pyrazino[1′,2′:4,5]pyrazino[2,3-c]quinolin-5(6H)-one] | 100 | 18 | – | – | – | low turnover | 9.75
C=CC(=O)N1C[C@@H]2C(=O)N(C)c3cnc4c(F)c(-c5c(O)cccc5F)c(Cl)cc4c3N2C[C@H]1C (single isomer, unassigned) [Example 22] | 100 | 5 | – | – | – | low turnover | 15.5
C=CC(=O)N1CCN2c3c(nnc4cc(-c5c(O)cccc5F)c(Cl)cc34)OC[C@H]2C1 [Example 10, 1-((4aR)-11-Chloro-10-(2-fluoro-6-hydroxyphenyl)-1,2,4a,5-tetrahydropyrazino[1′,2′:4,5][1,4]oxazino[2,3-c]cinnolin-3(4H)-yl)prop-2-en-1-one] | 81 | 135 | – | – | – | – | –
C=CC(=O)N1C[C@@H]2COc3cnc4cc(-c5c(O)cccc5F)c(Cl)cc4c3N2C[C@H]1C [Example 11, 1-[(2R,4aR)-11-Chloro-10-(2-fluoro-6-hydroxyphenyl)-2-methyl-1,2,4a,5-tetrahydropyrazino[1′,2′:4,5][1,4]oxazino[2,3-c]quinolin-3(4H)-yl]prop-2-en-1-one] | 93 | 47 | – | – | – | – | –
C=CC(=O)N1CCN2c3c(cnc4cc(-c5c(O)cccc5F)c(Cl)cc34)N(CCN(C)C)C[C@H]2C1 [Example 12, 1-((4aS)-11-Chloro-6-(2-(dimethylamino)ethyl)-10-(2-fluoro-6-hydroxyphenyl)-1,2,4,4a,5,6-hexahydro-3H-pyrazino[1′,2′:4,5]pyrazino[2,3-c]quinolin-3-yl)prop-2-en-1-one] | 75 | 231 | – | – | – | – | –
C=CC(=O)N1CCN2c3c(cnc4cc(-c5c(O)cccc5F)c(Cl)cc34)NC[C@H]2C1 [Example 13, 1-((4aS)-11-Chloro-10-(2-fluoro-6-hydroxyphenyl)-1,2,4,4a,5,6-hexahydro-3H-pyrazino[1′,2′:4,5]pyrazino[2,3-c]quinolin-3-yl)prop-2-en-1-one] | 86 | 387 | – | – | – | – | –
C=CC(=O)N1CCN2c3c(cnc4cc(-c5c(O)cccc5F)c(Cl)cc34)N(C)C[C@H]2C1 [Example 14, 1-((4aS)-11-chloro-10-(2-fluoro-6-hydroxyphenyl)-6-methyl-1,2,4,4a,5,6-hexahydro-3H-pyrazino[1′,2′:4,5]pyrazino[2,3-c]quinolin-3-yl)prop-2-en-1-one] | 91 | 132 | – | – | – | – | –
C=CC(=O)N1CCN2c3c(cnc4cc(-c5c(O)cccc5F)c(Cl)cc34)N(C)C(=O)[C@H]2C1 [Example 15, (4aR)-3-Acryloyl-11-chloro-10-(2-fluoro-6-hydroxyphenyl)-6-methyl-2,3,4,4a-tetrahydro-1H-pyrazino[1′,2′:4,5]pyrazino[2,3-c]quinolin-5(6H)-one] | 100 | 145 | – | – | – | – | –
C=CC(=O)N1CCN2c3c(cnc4cc(-c5c(O)cccc5F)c(Cl)cc34)N(C)C(=O)[C@@H]2C1 [Example 16, (4aS)-3-Acryloyl-11-chloro-10-(2-fluoro-6-hydroxyphenyl)-6-methyl-2,3,4,4a-tetrahydro-1H-pyrazino[1′,2′:4,5]pyrazino[2,3-c]quinolin-5(6H)-one] | 18 | 2700 | – | – | – | – | –
